From patent US4604239A, “Antibiotics” (Eli Lilly and Company, priority 1985, dated 1986)
Several values for one entry are separate records, joined by “and”; a condition that tells them apart may be missing. Equal values may be shown once. Read-outs that look alike come from different tables or passages of the source.

Key:
[1] = test system: Staphylococcus aureus; test: agar-dilution MIC; type: cell-based
[2] = test system: Hemophilus influenzae; test: agar-dilution MIC; type: cell-based; conditions: Table 17
[3] = test system: Bacteroides fragilis; test: agar-dilution MIC; type: cell-based; conditions: Table 14
Excerpt: (§1) The agar-dilution procedure described by the International Collaborative study (ICS) group was used to determine the minimum inhibitory concentrations (MIC's).

[4] = test system: Staphylococcus epidermidis; test: agar-dilution MIC; type: cell-based; conditions: Table 17
Excerpt: as §1

[5] = test system: Streptococcus pneumoniae; test: agar-dilution MIC; type: cell-based; conditions: Streptococcus pneumoniae Park I; Table 17
Excerpt: as §1

[6] = test system: Streptococcus pyogenes; test: agar-dilution MIC; type: cell-based; conditions: Streptococcus pyogenes C203; Table 17
Excerpt: as §1

[7] = test system: Streptococcus sp. (Group D); test: agar-dilution MIC; type: cell-based; conditions: Table 17
Excerpt: as §1

[8] = test system: Bacteroides thetaiotaomicron; type: cell-based; conditions: Bacteroides thetaiotaomicron 1438; Table 14
Excerpt: as §1

[9] = test system: Propionibacterium acnes; test: agar-dilution MIC; type: cell-based; conditions: Propionibacterium acnes 79; Table 14
Excerpt: Antibiotic A41030 factors A, B and C have also been tested and found to be active against a genus of anaerobic bacteria identified as Propionibacterium acnes.

[10] = test system: Clostridium difficile; type: cell-based
[11] = test system: Clostridium perfringens; type: cell-based; conditions: Clostridium perfringens 81; Table 14
[12] = test system: Clostridium septicum; test: agar-dilution MIC; type: cell-based; conditions: Clostridium septicum 1128; Table 14
[13] = test system: Eubacterium aerofaciens; test: agar-dilution MIC; type: cell-based; conditions: Eubacterium aerofaciens 1235; Table 14
[14] = test system: Peptococcus asaccharolyticus; test: agar-dilution MIC; type: cell-based; conditions: Peptococcus asaccharolyticus 1302; Table 14
Experimental: The MIC values were determined by the agar-dilution method, and are recorded in Table 15, which follows.

[15] = test system: Peptostreptococcus anaerobius; test: agar-dilution MIC; type: cell-based; conditions: Peptostreptococcus anaerobius 1428; Table 14
[16] = test system: Peptostreptococcus intermedius; test: agar-dilution MIC; type: cell-based; conditions: Peptostreptococcus intermedius 1264; Table 14
[17] = test system: Bacteroides melaninogenicus; test: agar-dilution MIC; type: cell-based; conditions: Bacteroides melaninogenicus 2736; Table 14
[18] = test system: Fusobacterium symbiosum; test: agar-dilution MIC; type: cell-based; conditions: Fusobacterium symbiosum 1470; Table 14
[19] = test system: Fusobacterium necrophorum; test: agar-dilution MIC; type: cell-based; conditions: Fusobacterium necrophorum 6054A; Table 14
[20] = test system: S. pneumoniae; test: experimental bacterial infection in mice; type: in vivo; conditions: two doses subcutaneously
Experimental: (§2) All of the A41030 factors tested have shown in vivo antimicrobial activity against experimental bacterial infections. When two doses of test compound were administered subcutaneously to mice in illustrative infections, the activity observed is measured as an ED50 value [effective dose in mg./kg. to protect fifty percent of the test animals: See Warren Wick, et al., J. Bacteriol. 81, 233-235 (1961)].

[21] = test system: Staph. aureus; test: experimental bacterial infection in mice; type: in vivo; conditions: two doses subcutaneously
Experimental: as §2

[22] = test system: S. pyogenes; test: experimental bacterial infection in mice; type: in vivo; conditions: S. pyogenes infection in mice; two doses subcutaneously
[23] = electrometric titration; type: physicochemical; conditions: electrometric titration in 66% dimethylformamide in water
Excerpt: Antibiotic A41030 factor A is a white, crystalline solid.

[24] = solubility; type: physicochemical
[25] = test system: Bacteroides corrodens; test: agar-dilution MIC; type: cell-based; conditions: Bacteroides corrodens 1874; Table 14
[26] = test system: Bacteroides vulgatis; test: agar-dilution MIC; type: cell-based; conditions: Bacteroides vulgatis 1211; Table 14
[27] = test system: Peptococcus prevoti; test: agar-dilution MIC; type: cell-based; conditions: Peptococcus prevoti 1281; Table 14
[28] = test system: Klebsiella pneumoniae; test: agar-dilution MIC; type: cell-based; conditions: Klebsiella pneumoniae X26; Table 17
Excerpt: The results after reading the which follows.

[29] = Staphylococcus epidermidis EPI1
[30] = Clostridium difficile 78, Table 16
[31] = Clostridium difficile 107B, Table 16
[32] = Clostridium difficile 111F, Table 16
[33] = Clostridium difficile 1153, Table 16
[34] = Clostridium difficile 2634, Table 16
[35] = Clostridium difficile 3424-5B, Table 16
[36] = Clostridium difficile 3816, Table 16
[37] = Clostridium difficile 6890, Table 16
[38] = Clostridium difficile 8484, Table 16
[39] = Clostridium difficile A-194, Table 16
[40] = Clostridium difficile A-195, Table 16
[41] = Clostridium difficile A-196, Table 16
[42] = Clostridium difficile A-279, Table 16
[43] = Clostridium difficile A-281, Table 16
[44] = Clostridium difficile WAL-2112, Table 16
[45] = Clostridium difficile WAL-3657, Table 16
[46] = Clostridium difficile WAL-4268, Table 16

In the case of A41030 factor F, the MIC ([1]; Staphylococcus aureus S13E, Table 17) is reported as 1 µg/mL, the MIC ([1]; in µg/mL) is reported as 0.5 and 1 and the MIC ([2]; Haemophilus influenzae 76) is reported as 32 µg/mL. For the same substance, the MIC ([2]; Haemophilus influenzae C.L.) was 32 µg/mL, the MIC ([3]; Bacteroides fragilis 111) was 32 µg/mL and the MIC ([3]; Bacteroides fragilis 1877) was 32 µg/mL. The MIC ([3]; Bacteroides fragilis 1936B) was 32 µg/mL, the MIC [4, 29] was 0.25 µg/mL and the MIC [5] was 2 µg/mL. It also gave an MIC [6] of 2 µg/mL, an MIC ([7]; Streptococcus sp. Group D 9960) of 4 µg/mL and an MIC ([7]; Streptococcus sp. Group D X66) of 4 µg/mL. It also gave an MIC [8] of 64 µg/mL, an MIC [9] of 1.0 µg/mL and an MIC [10, 30] of 1.0 µg/mL. For the same substance, the MIC [10, 31] was 1.0 µg/mL, the MIC [10, 32] was 2 µg/mL and the MIC [10, 33] was 2 µg/mL. For the same substance, the MIC [10, 34] was 2 µg/mL, the MIC [10, 35] was 1.0 µg/mL and the MIC [10, 36] was 1.0 µg/mL. The MIC [10, 37] was 1.0 µg/mL, the MIC [10, 38] was 1.0 µg/mL and the MIC [10, 39] was 1.0 µg/mL. For the same substance, the MIC [10, 40] was 1.0 µg/mL, the MIC [10, 41] was 2 µg/mL and the MIC [10, 42] was 1.0 µg/mL. The MIC ([10]; Clostridium difficile A-280, Table 16) was 1.0 µg/mL, the MIC [10, 43] was 2 µg/mL and the MIC [10, 44] was 1.0 µg/mL. The MIC [10, 45] was 1.0 µg/mL, the MIC [10, 46] was 1.0 µg/mL and the MIC [11] was 1.0 µg/mL. It also gave an MIC [12] of 1.0 µg/mL, an MIC [13] of 1.0 µg/mL and an MIC [14] of no more than 0.25 µg/mL. The MIC [15] was 32 µg/mL, the MIC [16] was 1.0 µg/mL and the MIC [17] was 1.0 µg/mL. For the same substance, the MIC [18] was 1.0 µg/mL, the MIC [19] was 1.0 µg/mL and the ED50 [20] was greater than 5.0 mg/kg. For the same substance, the ED50 [21] was less than 0.31 mg/kg, the ED50 [22] was greater than 5.0 mg/kg and the “possibly additional pKa's” value [23] was greater than 10. For the same substance, the “solubility (solvents)” value [24] was “soluble in the same solvents as factor A”, the MIC [25] was 32 µg/mL and the MIC [26] was 32 µg/mL. The MIC [27] was 32 µg/mL.

For A41030 factor G, the MIC ([2]; Haemophilus influenzae 76) was 32 µg/mL, the MIC ([2]; Haemophilus influenzae C.L.) was 32 µg/mL and the MIC ([3]; Bacteroides fragilis 111) was 32 µg/mL. For the same substance, the MIC ([3]; Bacteroides fragilis 1877) was 32 µg/mL, the MIC ([3]; Bacteroides fragilis 1936B) was 64 µg/mL and the MIC [4, 29] was 0.5 µg/mL. For the same substance, the MIC ([4]; Staphylococcus epidermidis EPI2) was 0.5 µg/mL, the MIC [5] was 2 µg/mL and the MIC [6] was 2 µg/mL. It also gave an MIC ([7]; Streptococcus sp. Group D 9960) of 4 µg/mL, an MIC ([7]; Streptococcus sp. Group D X66) of 4 µg/mL and an MIC [8] of 64 µg/mL. For the same substance, the MIC [9] was 1.0 µg/mL, the MIC [10, 30] was 1.0 µg/mL and the MIC [10, 31] was 1.0 µg/mL. It also gave an MIC [10, 32] of 1.0 µg/mL, an MIC [10, 33] of 1.0 µg/mL and an MIC [10, 34] of 1.0 µg/mL. For the same substance, the MIC ([10]; Clostridium difficile 2994, Table 14) was 2 µg/mL, the MIC [10, 35] was 1.0 µg/mL and the MIC [10, 36] was 1.0 µg/mL. The MIC ([10]; Clostridium difficile 3950D, Table 16) was 1.0 µg/mL, the MIC [10, 37] was 1.0 µg/mL and the MIC [10, 38] was 1.0 µg/mL. It also gave an MIC [10, 39] of 1.0 µg/mL, an MIC [10, 40] of 1.0 µg/mL and an MIC [10, 41] of 1.0 µg/mL. For the same substance, the MIC [10, 42] was 1.0 µg/mL, the MIC [10, 43] was 1.0 µg/mL and the MIC [10, 44] was 1.0 µg/mL. The MIC [10, 45] was 1.0 µg/mL, the MIC [10, 46] was 1.0 µg/mL and the MIC [11] was 2 µg/mL. The MIC [12] was 2 µg/mL, the MIC [13] was 2 µg/mL and the MIC [14] was 1.0 µg/mL. For the same substance, the MIC [15] was no more than 0.5 µg/mL, the MIC [16] was 2 µg/mL and the MIC [17] was 64 µg/mL. The MIC [18] was 2 µg/mL, the MIC [19] was 2 µg/mL and the MIC [28] was 64 µg/mL. The “possibly additional pKa's” value [23] was greater than 10.5, the “solubility (solvents)” value [24] was “soluble in the same solvents as is factor A” and the MIC [25] was 32 µg/mL. It also gave an MIC [26] of 64 µg/mL and an MIC [27] of 2 µg/mL.
